Tested on: 885724-159-R-J1-PDC KRAS PDC multicell spheroid viability
Test: Anticancer human tumor 885724-159-R-J1-PDC patient-derived pancreatic adenocarcinoma cell line growth inhibition [KRAS2]
Settings: for IC50: curve of first compound; for viability, T/C: stronger effect = lower value
Summary of the method: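 KRAS-mutant tumor cells were grown as spheroids with HUVEC endothelial cells and human MSCs as stroma. Targeted agents were tested alone and with KRAS pathway inhibitors. Doses started at or near clinical Cmax, or 10 microM, descending half-log.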

[1] = second compound 0.0316 µM, first compound 0.0316 µM
[2] = second compound 0.0316 µM, first compound 0.1 µM
[3] = second compound 0.0316 µM, first compound 0.316 µM
[4] = second compound 0.0316 µM, first compound 1 µM
[5] = second compound 0.0316 µM, first compound 3.16 µM
[6] = second compound 0.1 µM, first compound 0.0316 µM
[7] = second compound 0.1 µM, first compound 0.1 µM
[8] = second compound 0.1 µM, first compound 0.316 µM
[9] = second compound 0.1 µM, first compound 1 µM
[10] = second compound 0.1 µM, first compound 3.16 µM
[11] = second compound 0.316 µM, first compound 0.0316 µM
[12] = second compound 0.316 µM, first compound 0.1 µM
[13] = second compound 0.316 µM, first compound 0.316 µM
[14] = second compound 0.316 µM, first compound 1 µM
[15] = second compound 0.316 µM, first compound 3.16 µM
[16] = second compound 1 µM, first compound 0.0316 µM
[17] = second compound 1 µM, first compound 0.1 µM
[18] = second compound 1 µM, first compound 0.316 µM
[19] = second compound 1 µM, first compound 1 µM
[20] = second compound 1 µM, first compound 3.16 µM
[21] = second compound 3.16 µM, first compound 0.0316 µM
[22] = second compound 3.16 µM, first compound 0.1 µM
[23] = second compound 3.16 µM, first compound 0.316 µM
[24] = second compound 3.16 µM, first compound 1 µM
[25] = second compound 3.16 µM, first compound 3.16 µM
[26] = second compound 0.0316 µM, first compound 10 µM
[27] = second compound 0.1 µM, first compound 10 µM
[28] = second compound 0.316 µM, first compound 10 µM
[29] = second compound 1 µM, first compound 10 µM
[30] = second compound 3.16 µM, first compound 10 µM
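Further: spheroids exposed to agents for 7 days before readout.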

Compound	IC50 (second compound 0.0316 µM) [nM]	IC50 (second compound 0.1 µM) [nM]	IC50 (second compound 0.316 µM) [nM]	IC50 (second compound 1 µM) [nM]	IC50 (second compound 3.16 µM) [nM]	viability, T/C [1] [%]	viability, T/C [2] [%]	viability, T/C [3] [%]	viability, T/C [4] [%]	viability, T/C [5] [%]	viability, T/C [6] [%]	viability, T/C [7] [%]	viability, T/C [8] [%]	viability, T/C [9] [%]	viability, T/C [10] [%]	viability, T/C [11] [%]	viability, T/C [12] [%]	viability, T/C [13] [%]	viability, T/C [14] [%]	viability, T/C [15] [%]	also measured
CC1COCCN1c1cc(-c2ccnn2C)c2ccnc(-c3ccn[nH]3)c2n1 (stereo not given) + C=CC(=O)N1CCN(c2nc(OCC3CCCN3C)nc3c2CCN(c2cccc4cccc(C)c24)C3)CC1CC#N	1790	909	723	298	17	77.8	64.8	58.8	48.8	49.3	83.7	65.5	54.5	45.8	51.2	74.6	60.8	54.6	46.4	47.8	viability, T/C (second compound 0.0316 µM, first compound 0.01 µM): 102%; viability, T/C (second compound 0.1 µM, first compound 0.01 µM): 103%; viability, T/C (second compound 0.316 µM, first compound 0.01 µM): 95%; viability, T/C (second compound 1 µM, first compound 0.01 µM): 85%; viability, T/C [16]: 76.3%; viability, T/C [17]: 59.7%; viability, T/C [18]: 51.5%; viability, T/C [19]: 41.6%; viability, T/C [20]: 42.4%; viability, T/C (second compound 3.16 µM, first compound 0.01 µM): 53.4%; viability, T/C [21]: 46.5%; viability, T/C [22]: 37.2%; viability, T/C [23]: 33.5%; viability, T/C [24]: 25.4%; viability, T/C [25]: 23.4%
CC1OCC2(CCN(c3cnc(Sc4ccnc(N)c4Cl)c(N)n3)CC2)C1N (stereo not given) + C=CC(=O)N1CCN(c2nc(OCC3CCCN3C)nc3c2CCN(c2cccc4cccc(C)c24)C3)CC1CC#N	> 10000	> 10000	> 10000	9450	< 31.6	97	85.7	76.6	68.4	69.7	103	89.8	71.6	69.6	63.4	94	84.7	70.5	67.9	60.2	viability, T/C [26]: 56.6%; viability, T/C [27]: 61.6%; viability, T/C [28]: 57.3%; viability, T/C [16]: 79.4%; viability, T/C [17]: 73.4%; viability, T/C [18]: 64%; viability, T/C [19]: 56.2%; viability, T/C [20]: 56.8%; viability, T/C [29]: 48.6%; viability, T/C [21]: 46%; viability, T/C [22]: 40.2%; viability, T/C [23]: 36.1%; viability, T/C [24]: 33.6%; viability, T/C [25]: 35.1%; viability, T/C [30]: 27.1%
CCNC(=O)CC1N=C(c2ccc(Cl)cc2)c2cc(OC)ccc2-n2c(C)nnc21 (stereo not given) + C=CC(=O)N1CCN(c2nc(OCC3CCCN3C)nc3c2CCN(c2cccc4cccc(C)c24)C3)CC1CC#N	3550	1180	835	855	< 31.6	110	98.9	74.7	63.9	49.9	102	89.1	64.8	51	46.3	118	105	63.5	50.4	45	viability, T/C [26]: 44.8%; viability, T/C [27]: 45.7%; viability, T/C [28]: 42.4%; viability, T/C [16]: 87.2%; viability, T/C [17]: 82.7%; viability, T/C [18]: 66.5%; viability, T/C [19]: 46.5%; viability, T/C [20]: 45%; viability, T/C [29]: 39.5%; viability, T/C [21]: 49%; viability, T/C [22]: 49.4%; viability, T/C [23]: 39.2%; viability, T/C [24]: 20.6%; viability, T/C [25]: 29.3%; viability, T/C [30]: 27.9%
Cn1nccc1Nc1nccc(-c2cc3c(s2)C(C)(C)N(CCN2CCOCC2)C3=O)n1 + C=CC(=O)N1CCN(c2nc(OCC3CCCN3C)nc3c2CCN(c2cccc4cccc(C)c24)C3)CC1CC#N	601	506	315	421	< 31.6	98.1	81	57.7	43.8	34	97.5	78.4	58	39.5	32.8	87.2	72.8	48.2	38.2	31.4	viability, T/C [26]: 29.6%; viability, T/C [27]: 31.8%; viability, T/C [28]: 29.2%; viability, T/C [16]: 75.5%; viability, T/C [17]: 69.4%; viability, T/C [18]: 55%; viability, T/C [19]: 36.1%; viability, T/C [20]: 29.6%; viability, T/C [29]: 28.2%; viability, T/C [21]: 45.8%; viability, T/C [22]: 32.2%; viability, T/C [23]: 25.5%; viability, T/C [24]: 18.1%; viability, T/C [25]: 14.7%; viability, T/C [30]: 9.26%
